Test results reported in US20220024945A1, “THERAPEUTIC COMPOUNDS AND COMPOSITIONS, AND METHODS OF USE THEREOF” (Genentech, Inc., priority 2017, published 2022).
Like-named read-outs stand apart in the source and are kept apart here.

Key:
[1] = target: isolated recombinant JAK2 kinase domain (Homo sapiens, UniProt O60674); assay: JAK enzyme assay (Caliper LabChip), JAK2 kinase domain; conditions: ATP 25 μM, 0.2 nM JAK2, Morrison tight binding model
Method: JAK Enzyme Assays were Carried Out as Follows:
The activity of the isolated recombinant JAK1 and JAK2 kinase domain was measured by monitoring phosphorylation of a peptide derived from JAK3 ([sequence] fluorescently labeled on the N-terminus with 5-carboxyfluorescein) using the Caliper LabChip® technology (Caliper Life Sciences, Hopkinton, Mass.). […] Reactions were incubated at 22° C. in 384-well polypropylene microtiter plates for 30 minutes and then stopped by addition of 25 μL of an EDTA containing solution (100 mM HEPES buffer (pH 7.2), 0.015% Brij-35, 150 mM EDTA), resulting in a final EDTA concentration of 50 mM. After termination of the kinase reaction, the proportion of phosphorylated product was determined as a fraction of total peptide substrate using the Caliper LabChip® 3000 according to the manufacturer's specifications.

[2] = system: JAK1-dependent STAT6 phosphorylation downstream of IL-13 stimulation, BEAS-2B cells; assay: JAK1 pathway assay in cell lines: P-STAT6 in BEAS-2B cells + IL13; assay type: cell-based; conditions: BEAS-2B human bronchial epithelial cells, 1 hr compound preincubation, read-out: P-STAT6 BEAS2B + IL13 IC50
Method: JAK1 Pathway Assay in Cell Lines was Carried Out as Follows:
Inhibitor potency (EC50) was determined in cell-based assays designed to measure JAK1 dependent STAT phosphorylation. As noted above, inhibition of IL-4, IL-13, and IL-9 signaling by blocking the Jak/Stat signaling pathway can alleviate asthmatic symptoms in pre-clinical lung inflammation models (Mathew et al., 2001, J Exp Med 193(9): 1087-1096; Kudlacz et. al., 2008, Eur J. Pharmacol 582(1-3): 154-161).
In one assay approach, TF-1 human erythroleukemia cells obtained from the American Type Culture Collection (ATCC; Manassas, Va.) were used to measure JAK1-dependent STAT6 phosphorylation downstream of IL-13 stimulation. Prior to use in the assays, TF-1 cells were starved of GM-CSF overnight in OptiMEM medium (Life Technologies, Grand Island, N.Y.) supplemented with 0.5% charcoal/dextran stripped fetal bovine serum (FBS), 0.1 mM non-essential amino acids (NEAA), and 1 mM sodium pyruvate. The assays were run in 384-well plates in serum-free OptiMEM medium using 300,000 cells per well. In a second assay approach, BEAS-2B human bronchial epithelial cells obtained from ATCC were plated at 100,000 cells per well of a 96-well plate one day prior to the experiment. The BEAS-2B assay was run in complete growth medium (bronchial epithelial basal medium plus bulletkit; Lonza; Basel, Switzerland).
Test compounds were serially diluted 1:2 in DMSO and then diluted 1:50 in medium just before use. Diluted compounds were added to the cells, for a final DMSO concentration of 0.2%, and incubated for 30 m (for the TF-1 assay) or 1 hr (for the BEAS-2B assay) at 37° C. Then, cells were stimulated with human recombinant cytokine at their respective EC90 concentrations, as previously determined for each individual lot. Cells were stimulated with […] (R&D Systems, Minneapolis, Minn.) for 15 m/at 37° C. The TF-1 cell reactions were stopped by the direct addition of 10× lysis buffer (Cell Signaling Technologies, Danvers, Mass.), whereas the BEAS-2B cell incubations were halted by the removal of medium and addition of 1× lysis buffer. The resultant samples were frozen in the plates at −80° C. Compound mediated inhibition of STAT6 phosphorylation was measured in the cell lysates using MesoScale Discovery (MSD) technology (Gaithersburg, Md.). EC50 values were determined as the concentration of compound required for 50% inhibition of STAT phosphorylation relative to that measured for the DMSO control.

[3] = target: isolated recombinant JAK1 kinase domain (Homo sapiens, UniProt P23458); assay: JAK enzyme assay (Caliper LabChip), JAK1 kinase domain; assay type: biochemical; conditions: ATP 25 μM; 1.5 nM JAK1; Morrison tight binding model
Sequence of isolated recombinant JAK1 kinase domain (P23458 875-1153 limits assumed): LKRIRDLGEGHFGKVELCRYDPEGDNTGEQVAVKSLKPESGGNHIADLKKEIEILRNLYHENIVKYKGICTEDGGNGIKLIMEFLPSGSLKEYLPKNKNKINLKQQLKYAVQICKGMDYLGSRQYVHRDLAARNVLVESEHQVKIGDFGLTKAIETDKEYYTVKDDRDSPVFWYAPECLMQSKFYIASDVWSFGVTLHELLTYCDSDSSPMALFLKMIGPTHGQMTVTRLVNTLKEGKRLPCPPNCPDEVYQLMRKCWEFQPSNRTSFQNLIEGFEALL

Sequence of isolated recombinant JAK2 kinase domain (O60674 849-1124 limits assumed): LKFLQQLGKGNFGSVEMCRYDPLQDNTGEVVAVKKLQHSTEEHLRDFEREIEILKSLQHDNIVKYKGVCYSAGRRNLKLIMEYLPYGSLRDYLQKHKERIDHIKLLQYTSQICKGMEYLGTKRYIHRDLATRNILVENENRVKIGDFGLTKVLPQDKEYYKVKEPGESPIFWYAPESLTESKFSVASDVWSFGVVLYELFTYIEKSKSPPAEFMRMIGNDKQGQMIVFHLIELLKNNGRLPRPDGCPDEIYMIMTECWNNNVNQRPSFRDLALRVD

Ki [1] [nM]	Ki [3] [nM]	Compound	IC50 ([2]; Homo sapiens, BEAS-2B, 1 h) [nM]	IC50 [2] [nM]
0.25	0.35	CC[C@H](O)Cn1cc(NC(=O)c2cnn3cccnc23)c(-c2cc(SC)ccc2OC(F)F)n1 (racemic) [Example 41, N-[3-[2-(difluoromethoxy)-5-methylsulfanyl-phenyl]-1-[rac-(2S)-2-hydroxybutyl]pyrazol-4-yl]pyrazolo[1,5-a]pyrimidine-3-carboxamide]	13	–
3.47	9.73	CN1CCCC(Sc2ccc(OC(F)F)c(-c3n[nH]cc3NC(=O)c3cnn4cccnc34)c2)C1 (single isomer, unassigned) [Example 31, N-[3-[2-(difluoromethoxy)-5-[(1-methyl-3-piperidyl)sulfanyl]phenyl]-1H-pyrazol-4-yl]pyrazolo[1,5-a]pyrimidine-3-carboxamide]	–	–
51.7	91.5	O=C(Nc1c[nH]nc1-c1cc(SC2CCCNC2)ccc1OC(F)F)c1cnn2cccnc12 (single isomer, unassigned) [Example 36, N-[3-[2-(difluoromethoxy)-5-(3-piperidylsulfanyl)phenyl]-1H-pyrazol-4-yl]pyrazolo[1,5-a]pyrimidine-3-carboxamide]	–	> 1000
0.57	1.16	O=C(Nc1c[nH]nc1-c1cc(SC2CCCNC2)ccc1OC(F)F)c1cnn2cccnc12 (single isomer, unassigned) [Example 37, N-[3-[2-(difluoromethoxy)-5-(3-piperidylsulfanyl)phenyl]-1H-pyrazol-4-yl]pyrazolo[1,5-a]pyrimidine-3-carboxamide]	–	222
1.38	2.93	CN1CCCC(Sc2ccc(OC(F)F)c(-c3n[nH]cc3NC(=O)c3cnn4cccnc34)c2)C1 (single isomer, unassigned) [Example 38, N-[3-[2-(difluoromethoxy)-5-[(1-methyl-3-piperidyl)sulfanyl]phenyl]-1H-pyrazol-4-yl]pyrazolo[1,5-a]pyrimidine-3-carboxamide]	56	–
1.18	1.44	O=C(Nc1cn(C2CN(C3CC(O)C3)C2)nc1-c1cc(SC2COC2)ccc1OC(F)F)c1cnn2cccnc12 (single isomer, unassigned) [Example 39, N-[3-[2-(difluoromethoxy)-5-(oxetan-3-ylsulfanyl)phenyl]-1-[1-(3-hydroxycyclobutyl)azetidin-3-yl]pyrazol-4-yl]pyrazolo[1,5-a]pyrimidine-3-carboxamide]	35	–
1.02	1.18	O=C(Nc1cn(C2CN(C3CC(O)C3)C2)nc1-c1cc(SC2COC2)ccc1OC(F)F)c1cnn2cccnc12 (single isomer, unassigned) [Example 40, N-[3-[2-(difluoromethoxy)-5-(oxetan-3-ylsulfanyl)phenyl]-1-[1-(3-hydroxycyclobutyl)azetidin-3-yl]pyrazol-4-yl]pyrazolo[1,5-a]pyrimidine-3-carboxamide]	–	45
0.49	0.69	CC(C)Sc1ccc(OC(F)F)c(-c2nn(Cc3cn(C4CCN([C@H]5CCOC5)CC4)nn3)cc2NC(=O)c2cnn3cccnc23)c1 (stereo in doubt) [Example 11, N-[3-[2-(difluoromethoxy)-5-isopropylsulfanyl-phenyl]-1-[[1-[1-[rac-(3S)-tetrahydrofuran-3-yl]-4-piperidyl]triazol-4-yl]methyl]pyrazol-4-yl]pyrazolo[1,5-a]pyrimidine-3-carboxamide; formic acid]	23	–
0.46	0.64	CC(C)Sc1ccc(OC(F)F)c(-c2nn(Cc3cn(C4CCN([C@@H]5CCOC5)CC4)nn3)cc2NC(=O)c2cnn3cccnc23)c1 (stereo in doubt) [Example 12, N-[3-[2-(difluoromethoxy)-5-isopropylsulfanyl-phenyl]-1-[[1-[1-[rac-(3R)-tetrahydrofuran-3-yl]-4-piperidyl]triazol-4-yl]methyl]pyrazol-4-yl]pyrazolo[1,5-a]pyrimidine-3-carboxamide; formic acid]	22	–
0.36	0.56	O=C(Nc1cn(Cc2cn(C3CCN([C@H]4CCOC4)CC3)nn2)nc1-c1cc(SC2CC2)ccc1OC(F)F)c1cnn2cccnc12 (stereo in doubt) [Example 13, N-[3-[5-cyclopropylsulfanyl-2-(difluoromethoxy)phenyl]-1-[[1-[1-[rac-(3S)-tetrahydrofuran-3-yl]-4-piperidyl]triazol-4-yl]methyl]pyrazol-4-yl]pyrazolo[1,5-a]pyrimidine-3-carboxamide]	17	–
0.29	0.4	O=C(Nc1cn(Cc2cn(C3CCN([C@@H]4CCOC4)CC3)nn2)nc1-c1cc(SC2CC2)ccc1OC(F)F)c1cnn2cccnc12 (stereo in doubt) [Example 14, N-[3-[5-cyclopropylsulfanyl-2-(difluoromethoxy)phenyl]-1-[[1-[1-[rac-(3R)-tetrahydrofuran-3-yl]-4-piperidyl]triazol-4-yl]methyl]pyrazol-4-yl]pyrazolo[1,5-a]pyrimidine-3-carboxamide]	13	–
0.44	0.66	O=C(Nc1cn(Cc2cn(C3CCN([C@H]4CCOC4)CC3)nn2)nc1-c1cc(SC2COC2)ccc1OC(F)F)c1cnn2cccnc12 (stereo in doubt) [Example 20, N-[3-[2-(difluoromethoxy)-5-(oxetan-3-ylsulfanyl)phenyl]-1-[[1-[1-[rac-(3S)-tetrahydrofuran-3-yl]-4-piperidyl]triazol-4-yl]methyl]pyrazol-4-yl]pyrazolo[1,5-a]pyrimidine-3-carboxamide; formic acid]	67	–
0.38	0.66	O=C(Nc1cn(Cc2cn(C3CCN([C@@H]4CCOC4)CC3)nn2)nc1-c1cc(SC2COC2)ccc1OC(F)F)c1cnn2cccnc12 (stereo in doubt) [Example 21, N-[3-[2-(difluoromethoxy)-5-(oxetan-3-ylsulfanyl)phenyl]-1-[[1-[1-[rac-(3R)-tetrahydrofuran-3-yl]-4-piperidyl]triazol-4-yl]methyl]pyrazol-4-yl]pyrazolo[1,5-a]pyrimidine-3-carboxamide]	57	–
0.15	0.4	O=C(Nc1c[nH]nc1-c1cc(SC2CCOCC2)ccc1OC(F)F)c1cnn2cccnc12 [Example 1, N-[3-[2-(difluoromethoxy)-5-tetrahydropyran-4-ylsulfanyl-phenyl]-1H-pyrazol-4-yl]pyrazolo[1,5-a]pyrimidine-3-carboxamide]	11	–
0.28	0.67	O=C(Nc1c[nH]nc1-c1cc(SC2CCCCC2)ccc1OC(F)F)c1cnn2cccnc12 [Example 2, N-[3-[5-cyclohexylsulfanyl-2-(difluoromethoxy)phenyl]-1H-pyrazol-4-yl]pyrazolo[1,5-a]pyrimidine-3-carboxamide]	43	–
–	0.45	O=C(Nc1c[nH]nc1-c1cc(SC2CCOC2)ccc1OC(F)F)c1cnn2cccnc12 (centres unmarked) [Example 8, N-[3-[2-(difluoromethoxy)-5-tetrahydrofuran-3-ylsulfanyl-phenyl]-1H-pyrazol-4-yl]pyrazolo[1,5-a]pyrimidine-3-carboxamide]	19	–
0.13	–	Cn1cc(NC(=O)c2cnn3cccnc23)c(-c2cc(SC3COC3)ccc2OC(F)F)n1 [Example 15, N-[3-[2-(difluoromethoxy)-5-(oxetan-3-ylsulfanyl)phenyl]-1-methyl-pyrazol-4-yl]pyrazolo[1,5-a]pyrimidine-3-carboxamide]	14	–
0.91	–	CSc1ccc(OC(F)F)c(-c2nn(C3CCOCC3)cc2NC(=O)c2cnn3cccnc23)c1 [Example 16, N-[3-[2-(difluoromethoxy)-5-methylsulfanyl-phenyl]-1-tetrahydropyran-4-yl-pyrazol-4-yl]pyrazolo[1,5-a]pyrimidine-3-carboxamide]	31	–
